Source: ChEMBL document CHEMBL1201862, “PubChem BioAssay data set” (2004)
Activity calls are given as the source filed them.

Assays:
[1] = LGR2 antagonists, dose response, cell-based, HEK293, CRE-luciferase reporter, cherry pick, set 2 (AID 743343); type: functional;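 note: transfected cells were stimulated with diluted bursicon conditioned medium after compound addition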
[2] = C. albicans growth with fluconazole, confirmation, fluorescence, retest (AID 2467); type: functional, cell-based
BJ [3] = assay: cells; type: functional, cell-based; details: Homo sapiens
BJ [4] = assay: cytotoxicity toward BJ-TERT fibroblasts, dose response, cell-based, RAS-independent, luminescence (AID 1933); type: functional; details: Homo sapiens
HEK293 [5] = assay: HEK cell cytotoxicity by LDH release, dose response, cytotoxicity control for IDE activator project, fluorescence, HEK cells (AID 588440); type: functional, cell-based; details: Homo sapiens;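 note: cytotoxicity by LDH release measuring loss of membrane integrity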
[6] = Luminescence Cell-Based Dose Response HTS to Identify Inhibitors of 5'UTR Stem-Loop Driven Prion Protein mRNA Translation in H4 Neuroglioblastoma Cells. [Related pubchem assays: 1827 (Project Summary), 1813 (Primary HTS)]; type: functional
[7] = cytotoxicity toward DRD oncogenic fibroblasts, dose response, cell-based, non-viral oncogenic, luminescence (AID 1934); type: functional; details: Homo sapiens
[8] = inhibitors of SNCA 5'UTR-driven reporter translation, confirmation, H4 neuroglioma cells, luminescence (AID 1988); type: functional, cell-based
Paired box protein Pax-8 = Paired box protein Pax-8 (Homo sapiens, UniProt Q06710); assay: inhibitors of PAX8-driven TPO luciferase reporter, dose response, RMG-I cells, cherry-pick (AID 687027); type: functional, cell-based;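 note: luciferase reporter driven by Pax8 target thyroperoxidase promoter measured by SteadyGlo luminescence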
[9] = inhibitors of firefly luciferase expression or activity, dose response, H4 neuroglioma cells, luminescence (AID 1990); type: functional, cell-based
HEK293 [10] = assay: optical interference in Abeta FP readout, dose response, artefact control for IDE activator project, biochemical, fluorescence polarization (AID 588442); type: functional, cell-based; details: Homo sapiens
[11] = cytotoxicity in HEK-293T cells, dose response, cytotoxicity control for TCR NF-kB inhibitor project, luminescence, T-cell screen hits (AID 489026); type: functional, cell-based;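 note: cells exposed to compound about 14 hours before the viability readout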
BJ [12] = assay: cytotoxicity toward BJ-TERT-LT-ST fibroblasts, dose response, cell-based, RAS-independent, luminescence (AID 1935); type: functional; details: Homo sapiens;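 note: BJ fibroblasts immortalized with TERT plus LT and ST oncogenes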
[13] = test system: Streptococcus sp. 'group A'; assay: growth inhibition of control SK(-) GAS strain, dose response, counter-screen for streptokinase expression inhibitor project, luminescence, kanamycin, BacTiterGlo, confirmation (AID 1900); type: functional, organism-based
[14] = MC4R antagonists, dose response, counter-screen for LGR2 antagonist project, cell-based, plate reader, cherry pick (AID 743444); type: functional;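 note: transfected HEK 293 cells stimulated with alpha-MSH peptide; potency of inhibitors of the alpha-MSH evoked signal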
Insulin-degrading enzyme [15] = target: T1, Insulin-degrading enzyme (Homo sapiens, UniProt P14735); assay: activators of endogenous IDE in HEK cells, dose response, cell-based, fluorescence polarization (AID 588439); type: functional
T1 sequence (P14735 whole entry): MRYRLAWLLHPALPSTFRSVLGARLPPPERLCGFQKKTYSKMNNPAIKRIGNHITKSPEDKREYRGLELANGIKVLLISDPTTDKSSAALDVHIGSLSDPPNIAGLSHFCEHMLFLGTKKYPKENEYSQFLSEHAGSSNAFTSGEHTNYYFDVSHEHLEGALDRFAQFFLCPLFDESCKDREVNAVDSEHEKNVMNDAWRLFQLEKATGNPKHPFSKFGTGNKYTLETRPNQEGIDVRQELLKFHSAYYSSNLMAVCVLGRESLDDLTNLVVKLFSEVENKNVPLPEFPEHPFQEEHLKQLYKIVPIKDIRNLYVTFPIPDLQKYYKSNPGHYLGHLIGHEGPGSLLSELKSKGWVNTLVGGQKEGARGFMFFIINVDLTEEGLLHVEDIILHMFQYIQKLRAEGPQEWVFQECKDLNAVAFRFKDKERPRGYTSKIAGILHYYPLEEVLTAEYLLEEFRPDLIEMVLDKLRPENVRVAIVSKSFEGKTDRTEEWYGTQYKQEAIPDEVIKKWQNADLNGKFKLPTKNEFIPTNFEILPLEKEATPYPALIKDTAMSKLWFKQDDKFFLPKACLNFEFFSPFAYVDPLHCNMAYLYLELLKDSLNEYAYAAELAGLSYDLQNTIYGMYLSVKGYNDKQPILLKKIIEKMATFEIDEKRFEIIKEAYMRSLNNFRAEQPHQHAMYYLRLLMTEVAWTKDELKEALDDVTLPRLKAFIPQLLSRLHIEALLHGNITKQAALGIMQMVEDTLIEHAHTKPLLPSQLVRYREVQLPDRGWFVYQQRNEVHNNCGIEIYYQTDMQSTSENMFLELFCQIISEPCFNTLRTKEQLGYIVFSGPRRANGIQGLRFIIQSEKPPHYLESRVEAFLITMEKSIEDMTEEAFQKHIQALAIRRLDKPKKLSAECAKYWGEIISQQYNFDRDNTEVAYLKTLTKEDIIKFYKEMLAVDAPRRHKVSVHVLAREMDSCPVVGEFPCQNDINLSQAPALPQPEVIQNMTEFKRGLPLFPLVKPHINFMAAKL

[16] = A549 cell cytotoxicity, dose response, cytotoxicity control, plate reader, cherry-pick, antagonist series (AID 743412); type: functional, cell-based
BJ [17] = assay: cytotoxicity toward Ras-transformed BJeLR fibroblasts, dose response, cell-based, alamar blue fluorescence, cherrypicked samples (AID 2631); type: functional; details: Homo sapiens;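 note: confirmatory dose-response assay in RAS-dependent BJ fibroblasts engineered with TERT, LT and ST, with cytotoxicity read by fluorescence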
[18] = inhibitors of PGC1a acetylation in cells, dose response, cell-based, cherry-picked samples (AID 720514); type: functional;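 note: potency may reflect raised or lowered acetylation signal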
[19] = HEK293 cell cytotoxicity, dose response, cytotoxicity control, plate reader, cherry-picked samples (AID 743446); type: functional, cell-based
Insulin-degrading enzyme [20] = target: T1, Insulin-degrading enzyme; assay: activators of recombinant IDE enzyme, dose response, counter-screen for IDE activator project, biochemical, fluorescence polarization (AID 588681)
[21] = HepG2 cell cytotoxicity, dose response, cytotoxicity control, plate reader, cherry-pick, antagonist series (AID 743416); type: functional, cell-based
[22] = target: T2, Ubiquitin-conjugating enzyme E2 N (Homo sapiens, UniProt P61088); type: functional;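 note: Dose-response confirmation in a TR-FRET assay detecting UBC13-driven polyubiquitin chain formation, inhibition measured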
T2 sequence (P61088 whole entry): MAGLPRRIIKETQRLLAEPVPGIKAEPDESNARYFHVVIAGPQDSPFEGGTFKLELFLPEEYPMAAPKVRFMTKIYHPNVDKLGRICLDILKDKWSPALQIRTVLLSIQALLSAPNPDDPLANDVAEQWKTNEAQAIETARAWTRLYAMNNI

Streptococcus = assay: Group A Streptococcus viability loss, dose response, counter-screen for streptokinase expression inhibitor project, luminescence, BacTiterGlo (AID 1915); type: functional, organism-based;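 note: potency for reduction of bacterial viability or growth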
[23] = NIH-3T3 fibroblast cytotoxicity, dose response, cytotoxicity control, cell-based, fluorescence, Alamar Blue, secondary assay (AID 2327); type: functional;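 note: NIH-3T3 mouse fibroblasts cultured with fluconazole at 8 µg/mL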
INS1 = assay: beta cell apoptosis inhibitors, cytokine rescue, dose response, luminescence, retest (AID 449756); type: functional, cell-based; details: Rattus norvegicus;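 note: cell death triggered by IL-1 beta plus TNF-alpha plus IFN-gamma mixture; protective hits raise ATP signal compared with cytokine alone wells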
[24] = target: DNA dC->dU-editing enzyme APOBEC-3A (Homo sapiens, UniProt P31941); assay: SAR analysis of small molecule inhibitors of APOBEC3A DNA Deaminase via a fluorescence-based single-stranded DNA deaminase assay.; type: functional; details: read-out: IC50_Mean
[25] = target: DNA dC->dU-editing enzyme APOBEC-3G (Homo sapiens, UniProt Q9HC16); assay: APOBEC3G deaminase inhibitors, SAR follow-up, biochemical, fluorescence, single-stranded DNA substrate (AID 602136); type: functional; details: read-out: IC50_Mean
Orexin receptor type 2 [26] = target: T3, Orexin receptor type 2 (Homo sapiens, UniProt O43614); assay: Counterscreen assay for antagonists of the orexin 1 receptor (OX1R; HCRTR1): Homogeneous Time Resolved Fluorescence (HTRF)-based cell-based dose response assay for antagonists of the orexin 2 receptor (OX2R; HCRTR2), run by assay provider.; type: functional
T3 sequence (O43614 whole entry): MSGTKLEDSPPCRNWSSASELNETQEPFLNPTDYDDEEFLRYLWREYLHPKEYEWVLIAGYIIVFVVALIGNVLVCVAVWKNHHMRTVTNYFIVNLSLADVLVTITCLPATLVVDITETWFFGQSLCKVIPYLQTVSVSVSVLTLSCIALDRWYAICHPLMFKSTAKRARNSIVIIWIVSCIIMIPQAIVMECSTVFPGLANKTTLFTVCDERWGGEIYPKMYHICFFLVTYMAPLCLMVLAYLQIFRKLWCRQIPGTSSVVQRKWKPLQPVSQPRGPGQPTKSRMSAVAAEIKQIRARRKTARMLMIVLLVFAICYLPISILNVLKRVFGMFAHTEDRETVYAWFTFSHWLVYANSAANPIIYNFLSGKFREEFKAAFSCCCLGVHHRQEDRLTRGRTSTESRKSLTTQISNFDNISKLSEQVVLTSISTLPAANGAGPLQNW

Orexin receptor type 2 [27] = target: T3, Orexin receptor type 2; assay: Counterscreen assay for antagonists of the orexin 1 receptor (OX1R; HCRTR1): Fluorescence-based cell-based dose response assay for antagonists of the orexin 2 receptor (OX2R; HCRTR2), run by assay provider.; type: functional
[28] = target: T4, Orexin/Hypocretin receptor type 1 (Homo sapiens, UniProt O43613); assay: (§1) Fluorescence-based cell-based high throughput dose response assay for antagonists of the orexin 1 receptor (OX1R; HCRTR1). [Related pubchem assays (depositor defined):AID434989, AID435008, AID463079, AID485270, AID492963, AID492964, AID492965, AID493232, AID504717, AID504718]; type: functional
T4 sequence (O43613 whole entry): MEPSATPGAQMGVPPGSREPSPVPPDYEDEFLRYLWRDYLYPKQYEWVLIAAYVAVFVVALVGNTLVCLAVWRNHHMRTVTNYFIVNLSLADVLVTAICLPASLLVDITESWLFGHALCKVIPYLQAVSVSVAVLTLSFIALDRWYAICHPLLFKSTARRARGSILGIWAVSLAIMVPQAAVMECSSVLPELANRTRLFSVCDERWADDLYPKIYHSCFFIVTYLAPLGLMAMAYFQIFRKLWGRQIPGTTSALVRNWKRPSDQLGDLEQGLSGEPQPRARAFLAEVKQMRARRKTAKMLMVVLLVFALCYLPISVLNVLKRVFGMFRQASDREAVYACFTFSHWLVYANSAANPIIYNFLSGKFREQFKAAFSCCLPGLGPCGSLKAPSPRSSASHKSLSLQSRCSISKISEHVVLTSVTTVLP

[29] = target: T5, Calpain-2 catalytic subunit (Sus scrofa, UniProt P43367); assay: pig calpain II inhibitor potency, dose response, biochemical, fluorogenic peptide substrate (AID 1420); type: functional
T5 sequence (P43367 whole entry): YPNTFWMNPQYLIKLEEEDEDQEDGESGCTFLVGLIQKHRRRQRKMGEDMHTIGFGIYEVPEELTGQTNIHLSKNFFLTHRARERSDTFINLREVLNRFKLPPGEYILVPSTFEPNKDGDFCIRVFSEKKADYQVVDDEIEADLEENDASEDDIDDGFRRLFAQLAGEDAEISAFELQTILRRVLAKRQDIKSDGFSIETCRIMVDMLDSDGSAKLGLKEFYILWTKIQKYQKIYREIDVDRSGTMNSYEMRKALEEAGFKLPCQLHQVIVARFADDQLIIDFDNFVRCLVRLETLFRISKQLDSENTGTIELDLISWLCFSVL

CHO-K1 = assay: (§2) Counterscreen for antagonists of the orexin 1 receptor (OX1R; HCRTR1): Homogeneous time resolved fluorescence (HTRF)-based cell-based dose response assay to identify antagonists of the parental CHO-K1 cell line. [Related pubchem assays (depositor defined):AID434989, AID435008, AID463079, AID485270, AID492963, AID492964, AID492965, AID493232, AID504699, AID504701]; type: functional; details: Cricetulus griseus
[30] = as §2, with “Fluorescence-based” for “Homogeneous time resolved fluorescence (HTRF)-based”, “cell-based high throughput” for “cell-based”, “CHO” for “CHO-K1”; type: functional
[31] = target: T4, Orexin/Hypocretin receptor type 1; assay: as §1, with “Homogeneous Time Resolved Fluorescence (HTRF)-based” for “Fluorescence-based”; type: functional

DNA dC->dU-editing enzyme APOBEC-3A, sequence (P31941 whole entry): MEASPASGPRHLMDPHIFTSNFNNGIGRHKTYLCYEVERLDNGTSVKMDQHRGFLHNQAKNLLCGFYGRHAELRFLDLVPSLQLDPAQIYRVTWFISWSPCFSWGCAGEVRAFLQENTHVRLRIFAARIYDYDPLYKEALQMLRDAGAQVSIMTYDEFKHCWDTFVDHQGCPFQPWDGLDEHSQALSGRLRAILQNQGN
DNA dC->dU-editing enzyme APOBEC-3G, sequence (Q9HC16 whole entry): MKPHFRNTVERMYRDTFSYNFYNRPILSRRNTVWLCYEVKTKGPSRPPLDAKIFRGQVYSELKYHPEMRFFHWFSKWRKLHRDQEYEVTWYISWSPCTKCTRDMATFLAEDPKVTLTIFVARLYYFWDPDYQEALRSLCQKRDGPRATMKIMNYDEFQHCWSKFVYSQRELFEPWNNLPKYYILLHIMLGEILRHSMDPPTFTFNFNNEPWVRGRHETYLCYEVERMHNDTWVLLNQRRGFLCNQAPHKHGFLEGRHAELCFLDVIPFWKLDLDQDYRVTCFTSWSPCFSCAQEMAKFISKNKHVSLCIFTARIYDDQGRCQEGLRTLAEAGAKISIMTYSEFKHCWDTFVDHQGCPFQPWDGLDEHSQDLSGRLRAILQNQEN
Paired box protein Pax-8, sequence (Q06710 whole entry): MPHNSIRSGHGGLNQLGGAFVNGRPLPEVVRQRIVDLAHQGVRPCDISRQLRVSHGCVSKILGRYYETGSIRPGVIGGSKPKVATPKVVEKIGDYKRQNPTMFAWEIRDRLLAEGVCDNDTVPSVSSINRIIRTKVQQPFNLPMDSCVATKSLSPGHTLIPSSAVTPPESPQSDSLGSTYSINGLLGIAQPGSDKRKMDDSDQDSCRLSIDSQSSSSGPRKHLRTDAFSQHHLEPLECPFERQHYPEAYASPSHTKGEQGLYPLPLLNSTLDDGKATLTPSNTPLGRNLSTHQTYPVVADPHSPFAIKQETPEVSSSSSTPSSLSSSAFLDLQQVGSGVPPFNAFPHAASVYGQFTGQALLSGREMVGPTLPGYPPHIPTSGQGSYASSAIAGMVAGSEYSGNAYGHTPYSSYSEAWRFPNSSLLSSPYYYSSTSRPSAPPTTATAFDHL

For CNC[C@@H](CC1CCCCC1)NC[C@H](CC(C)C)NCCc1cccc(C(F)(F)F)c1, the AC50 [1] was 14.6 µM (active), the EC50 [2] was > 38 µM (not active) and the EC50 (BJ [3]) was 7.22 µM (inconclusive). For the same molecule, the EC50 (BJ [4]) was 2.66 µM (inconclusive), the IC50 (HEK293 [5]) was 6.35 µM (active) and the EC50 [6] was 8.87 µM (active). The EC50 [7] was 4.69 µM (active), the EC50 [8] was 7.84 µM (active) and the AC50 (Paired box protein Pax-8) was 9.93 µM (active). The EC50 [9] was > 120 µM (not active), the EC50 (HEK293 [10]) was > 54.7 µM (inactive) and the IC50 [11] was 29 µM (inactive). For the same molecule, the EC50 (BJ [12]) was 2.08 µM (active), the EC50 [13] was 2.79 µM (active) and the AC50 [14] was 22.5 µM (active). For the same molecule, the EC50 (Insulin-degrading enzyme [15]) was 6.62 µM (active), the AC50 [16] was 4.66 µM (active) and the EC50 (BJ [17]) was 1.86 µM (inconclusive). For the same molecule, the AC50 [18] was 3.24 µM (active), the AC50 [19] was 7.81 µM (active) and the EC50 (Insulin-degrading enzyme [20]) was > 54.7 µM (inactive). For the same molecule, the AC50 [21] was 3.86 µM (active), the IC50 [22] was > 20 µM (inactive) and the EC50 (Streptococcus) was 9.26 µM (active). For the same molecule, the EC50 [23] was 7.53 µM (inconclusive) and the AC50 (INS1) was 3.59 µM (active).

With CCc1ccc(Nc2nc(Nc3ccc(OC)cc3)nc(N3CCCC3)n2)cc1 the IC50 [24] was > 99 µM (inactive) and the IC50 [25] was > 99 µM (inactive).

In the case of O=C(CSc1ccc(-c2ccccc2)nn1)c1cccs1, the IC50 (Orexin receptor type 2 [26]) is reported as > 50 µM (inactive), the IC50 (Orexin receptor type 2 [27]) is reported as > 88.8 µM (inactive) and the IC50 [28] is reported as 3.37 µM (active). The IC50 [29] was > 50 µM (not active), the IC50 (CHO-K1) was > 66.2 µM (inactive) and the IC50 [30] was > 49.8 µM (inactive). For the same molecule, the IC50 [31] was 1.08 µM (active).
